Assay type in all cases: cell-based, human
The test system of assay [1] is Target C. Kind of assay: HiBiT protein abundance assay, Target C. Particulars: Table 13A, modified K562 cells. Summed up: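 HiBiT knock-in K562-derived cells, 10000 cells/well, were treated 24 h at 37 °C with a 10-point 3-fold dilution series (top 10 μM final, DMSO ≤0.25%). Lytic HiBiT luminescence was normalized to unmodified K562 and DMSO controls; IC50 was interpolated at 50% from a four-parameter logistic fit.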

Assay [2] deals with HTT. Description: HiBiT protein abundance assay, HTT. The conditions noted are these: Table 13A, modified K562 cells. An outline of the steps:
(§1)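 K562 cells with endogenous HiBiT-tagged target were treated 24 h at 37 °C with compound (10-point 3-fold dilution, top 10 μM final, DMSO ≤0.25%). Lytic LgBiT luminescence was normalized to unmodified K562 (baseline) and DMSO-treated tagged cells; IC50 interpolated at 50% from four-parameter logistic fit.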
For orientation: With HiBiT, luminescence reflects the tagged protein that the partner subunit can reach.

In assay [3] the test system is MYB. Kind of assay: Splicing RT-qPCR assay, MYB mRNA canonical junction (CJ) and alternative junction (AJ). The conditions noted are these: for AC50: increase in AJ mRNA. Summed up:
(§2)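 First, A673 cells adhered 24 h, while K562 cells were plated directly. Next, compounds were added as an 11-point 3-fold series from 10 uM for 24 h. Finally, lysates went to RT-qPCR, with 2^(−ΔΔCt) values converted to percentage response.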
(In general: Quantitative PCR measures a nucleic acid by following its amplification.)

Assay [4] has as its system SMN2. Description: Splicing RT-qPCR panel, SMN2 canonical junction (CJ) mRNA. The conditions noted are these: RT-qPCR panel, canonical junction mRNA, compound concentration having 50% response in CJ decrease, read-out: SMN2 IC50 (decrease in CJ mRNA levels). Summed up:
as §2

The test system of assay [5] is MYB. Kind of assay: HiBiT protein abundance assay, MYB. The conditions noted are these: Table 13A, modified K562 cells. An outline of the steps: as §1
Where [6] appears, read: Homo sapiens, 24 h, decrease in CJ mRNA, A673 or K562 cells, 24 hours treatment, RT-qPCR, read-out: MYB CJ IC50.
Setting [7] is: Homo sapiens, 24 h, A673 or K562 cells, 24 hours treatment, RT-qPCR.
[8] abbreviates: Homo sapiens, RT-qPCR panel, canonical junction mRNA, compound concentration having 50% response in CJ decrease, read-out: MYB IC50 (decrease in CJ mRNA levels).

Like-named read-outs stand apart in the source and are kept apart here.

As for `Cc1ncc(-c2ccc(-c3ccc(O[C@@H]4C[C@H]5CC[C@@H](C4)N5)nn3)c3scnc23)s1` [Compound 348, 7-{6-[(exo)-8-azabicyclo[3.2.1]octan-3-yloxy]pyridazin-3-yl}-4-(2-methyl-1,3-thiazol-5-yl)-1,3-benzothiazole], the IC50 – broadly, the concentration that gives 50% inhibition – in assay [1] (Homo sapiens, K562, 24 h) was 100 to 1000 nM; in assay [2] (Homo sapiens, K562, 24 h) it was less than 100 nM; in assay [3] (setting [6]), 100 to 1000 nM; in assay [3] (setting [8]), 100 to 1000 nM; in assay [4] (Homo sapiens) it was less than 100 nM; in assay [5] (Homo sapiens, K562, 24 h) it was less than 100 nM. In addition, the AC50 – broadly, the concentration at which the activity in the assay is half-maximal – in assay [3] (setting [7]) was in the range of 100 to 1000 nM.
`CN(c1ccc(-c2ccc(-c3cn[nH]c3)c3ncsc23)nn1)[C@H]1C[C@H]2COC[C@@H](C1)N2` [Compound 356, (endo)-N-methyl-N-{6-[4-(1H-pyrazol-4-yl)-1,3-benzothiazol-7-yl]pyridazin-3-yl}-3-oxa-9-azabicyclo[3.3.1]nonan-7-amine]: the IC50 in assay [1] (24 hours) was less than 100 nM; in assay [2] (24 hours) it was less than 100 nM; in assay [3] (RT-qPCR panel, canonical junction mRNA, compound concentration having 50% response in CJ decrease, read-out: MYB IC50 (decrease in CJ mRNA levels)), 100 to 1000 nM; in assay [3] (decrease in CJ mRNA, A673 or K562 cells, 24 hours treatment, RT-qPCR, read-out: MYB CJ IC50), 100 to 1000 nM; in assay [4] it was less than 100 nM; in assay [5] (24 hours) it was less than 100 nM.
For `COc1cc(-c2ccc(-c3ccc(O[C@@H]4C[C@H]5CC[C@@H](C4)N5)nn3)c3scnc23)cnn1` [Compound 362], the IC50 was less than 100 nM in assay [1] (Homo sapiens, K562, 24 h); less than 100 nM in assay [2] (Homo sapiens, K562, 24 h); 100 to 1000 nM in assay [3] (setting [6]); 100 to 1000 nM in assay [3] (setting [8]); less than 100 nM in assay [4] (Homo sapiens); less than 100 nM in assay [5] (Homo sapiens, K562, 24 h). In assay [3] (setting [7]), the AC50 was less than 100 nM.
Take `Fc1ccn(-c2ccc(-c3ccc(O[C@@H]4C[C@H]5CC[C@@H](C4)N5)nn3)c3scnc23)n1` [Compound 363]: the IC50 is 100 to 1000 nM in assay [1] (Homo sapiens, K562, 24 h); less than 100 nM in assay [2] (Homo sapiens, K562, 24 h); 100 to 1000 nM in assay [3] (setting [6]); 100 to 1000 nM in assay [3] (setting [8]); less than 100 nM in assay [4] (Homo sapiens); 100 to 1000 nM in assay [5] (Homo sapiens, K562, 24 h). Further, in assay [3] (setting [7]), the AC50 fell in the range of 100 to 1000 nM.
Turning to `CN(c1ncc(-c2ccc(-n3cccn3)c3[nH]ncc23)nn1)[C@@H]1C[C@H]2CCC[C@@H](C1)N2` [Compound 551], the IC50 in assay [1] (Homo sapiens, K562, 24 h) was less than 100 nM; in assay [2] (Homo sapiens, K562, 24 h), less than 100 nM; in assay [3] (setting [8]) it was 100 to 1000 nM; in assay [4] (Homo sapiens), less than 100 nM; in assay [5] (Homo sapiens, K562, 24 h), less than 100 nM.
As for `c1cnn(-c2ccc(-c3cnc(N[C@@H]4C[C@H]5CC[C@@H](C4)N5)nn3)c3cn[nH]c23)c1` [Compound 556], the IC50 in assay [1] (Homo sapiens, K562, 24 h) was less than 100 nM; in assay [2] (Homo sapiens, K562, 24 h) it was less than 100 nM; in assay [3] (setting [8]) it was 100 to 1000 nM; in assay [4] (Homo sapiens), 100 to 1000 nM; in assay [5] (Homo sapiens, K562, 24 h), 100 to 1000 nM.
For `c1cnn(-c2ccc(-c3cnc(N[C@@H]4C[C@H]5CCC[C@@H](C4)N5)nn3)c3cn[nH]c23)c1` [Compound 561], the IC50 in assay [1] (Homo sapiens, K562, 24 h) was less than 100 nM; in assay [2] (Homo sapiens, K562, 24 h) it was less than 100 nM; in assay [3] (setting [8]) it was 100 to 1000 nM; in assay [4] (Homo sapiens), 100 to 1000 nM; in assay [5] (Homo sapiens, K562, 24 h) it was 100 to 1000 nM.
Regarding `CC(C)(C)C1CN(c2ncc(-c3ccc(-n4cccn4)c4[nH]ncc34)nn2)CCN1` (centres unmarked) [Compound 572], the IC50 in assay [1] (Homo sapiens, K562, 24 h) is 100 to 1000 nM; in assay [2] (Homo sapiens, K562, 24 h) it was less than 100 nM; in assay [3] (setting [8]), 100 to 1000 nM; in assay [4] (Homo sapiens) it was 100 to 1000 nM; in assay [5] (Homo sapiens, K562, 24 h), 100 to 1000 nM.
With `CN(c1ncc(-c2ccc(-n3cncn3)c3[nH]ncc23)nn1)[C@@H]1C[C@H]2CCC[C@@H](C1)N2` [Compound 574], the IC50 in assay [1] (Homo sapiens, K562, 24 h) was less than 100 nM; in assay [2] (Homo sapiens, K562, 24 h), less than 100 nM; in assay [3] (setting [8]) it was 100 to 1000 nM; in assay [4] (Homo sapiens), less than 100 nM; in assay [5] (Homo sapiens, K562, 24 h), 100 to 1000 nM.
Turning to `CN(c1ncc(-c2ccc(-n3ccnn3)c3[nH]ncc23)nn1)[C@@H]1C[C@H]2CCC[C@@H](C1)N2` [Compound 576], the concentration for half-maximal inhibition (IC50) is 100 to 1000 nM in assay [1] (Homo sapiens, K562, 24 h); less than 100 nM in assay [2] (Homo sapiens, K562, 24 h); 1000 to 10000 nM in assay [3] (setting [8]); 100 to 1000 nM in assay [4] (Homo sapiens); 100 to 1000 nM in assay [5] (Homo sapiens, K562, 24 h).
With `Cc1ncc(-c2ccc(-c3cnc(N(C)[C@@H]4C[C@H]5CCC[C@@H](C4)N5)nn3)c3scnc23)s1` [Compound 578], the IC50 was less than 100 nM in assay [1] (Homo sapiens, K562, 24 h); less than 100 nM in assay [2] (Homo sapiens, K562, 24 h); 100 to 1000 nM in assay [3] (setting [8]); less than 100 nM in assay [4] (Homo sapiens); 100 to 1000 nM in assay [5] (Homo sapiens, K562, 24 h).
